Source: article PMC6001238, “Iterative Chemical Engineering of Vancomycin Leads to Novel Vancomycin Analogs With a High in Vitro Therapeutic Index” (Frontiers in Microbiology, 2018)
Values after ≈ are worked out from the molar mass of the structure shown.

Columns and labels:
[1] = tested on: S. aureus VRSA; test: MIC, broth microdilution, vancomycin-resistant S. aureus (VRSA); format: cell-based, Staphylococcus aureus; settings: for MIC: Staphylococcus aureus VRSA, read-out: MIC; for MIC-fold improvement vs. vancomycin: VRSA, ratio of MIC of vancomycin and MIC of analogue
Method in brief: (§1)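 Broth microdilution per CLSI; controls = ultrapure water, non-inoculated broth. One set: + vancomycin 10 μM final alongside test analogue/control drug.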

[2] = tested on: E. faecalis VRE 37; test: MIC, broth microdilution, vancomycin-resistant E. faecalis VRE 37 (VanA); format: cell-based, Enterococcus faecalis; settings: for MIC: Enterococcus faecalis VRE 37 (vancomycin-resistant), read-out: MIC; for MIC-fold improvement vs. vancomycin: VRE 37, ratio of MIC of vancomycin and MIC of analogue
Method in brief: as §1

[3] = tested on: L1210, CEM and HeLa cell lines; test: Cytostatic activity, average or summary over L1210, CEM and HeLa; format: cell-based; settings: average of L1210, CEM and HeLa; read-out: Toxicity (IC50) Average
Method in brief: (§2)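 Suspensions (300,000–500,000 cells/mL) combined with equal volumes of diluted compound; 37°C; L1210 2 d / CEM 3 d / HeLa 4 d; counted by Coulter counter; IC50 vs untreated wells.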

[4] = tested on: human T-lymphocyte (CEM) cells; test: Cytostatic activity, CEM cell proliferation; format: cell-based; settings: mean ± SD of three experiments; highest concentration tested 250 µM; 3 days; read-out: Toxicity (IC50) CEM
Method in brief: as §2

[5] = tested on: MRSA KS1; test: MIC, broth microdilution, MRSA KS1; format: cell-based, Staphylococcus aureus; settings: for MIC-fold improvement vs. vancomycin: MRSA KS1, ratio of MIC of vancomycin and MIC of analogue; for MIC: Staphylococcus aureus MRSA KS1, read-out: MIC
Method in brief: as §1

[6] = tested on: Clostridium difficile AIU ribotype 027; test: MIC, plate drop assay, C. difficile AIU ribotype 027; format: cell-based; settings: for MIC-fold improvement vs. vancomycin: C. difficile AIU ribotype 027
Procedure: (§3) Bacterial lawns of both C. difficile strains were prepared by adding 0.5 mL overnight culture to 8 mL sloppy BHI agar (0.4% agar) supplemented with 1.5 g/L CaCl2⋅2H2O and 81.2 g/L MgCl2⋅6H2O, and pouring the mixture into Petri plates. A twofold dilution series of the selected vancomycin analogs, vancomycin ([…]) and daptomycin (25 μM) was spotted (10 μL) on the bacterial lawn. Spots were air-dried and the plates were incubated overnight at 37°C in an anaerobic cabinet. Ultrapure water was included as negative control. The assay was performed in triplicate. Inhibition was observed by cleared spots.

[7] = tested on: E. faecalis VRE 6; test: MIC, broth microdilution, vancomycin-resistant E. faecalis VRE 6 (VanA); format: cell-based, Enterococcus faecalis; settings: for MIC: Enterococcus faecalis VRE 6 (vancomycin-resistant), read-out: MIC; for MIC-fold improvement vs. vancomycin: VRE 6, ratio of MIC of vancomycin and MIC of analogue
Method in brief: as §1

[8] = tested on: S. aureus VSSA (ATCC 6538); test: MIC, broth microdilution, vancomycin-sensitive S. aureus (VSSA/MSSA, ATCC 6538); format: cell-based, Staphylococcus aureus; settings: for MIC: Staphylococcus aureus VSSA, read-out: MIC; for MIC-fold improvement vs. vancomycin: VSSA, ratio of MIC of vancomycin and MIC of analogue
Method in brief: as §1

[9] = tested on: MRSA KS89; test: MIC, broth microdilution, MRSA KS89; format: cell-based, Staphylococcus aureus; settings: for MIC-fold improvement vs. vancomycin: MRSA KS8, ratio of MIC of vancomycin and MIC of analogue; for MIC: Staphylococcus aureus MRSA KS8, read-out: MIC
Method in brief: as §1

[10] = tested on: E. faecalis VSE 1; test: MIC, broth microdilution, vancomycin-sensitive E. faecalis (VSE 1); format: cell-based, Enterococcus faecalis; settings: for MIC: Enterococcus faecalis VSE 1 (vancomycin-sensitive), read-out: MIC; for MIC-fold improvement vs. vancomycin: VSE 1, ratio of MIC of vancomycin and MIC of analogue
Method in brief: as §1

[11] = tested on: E. faecalis VRE 53; test: MIC, broth microdilution, vancomycin-resistant E. faecalis VRE 53 (VanA); format: cell-based, Enterococcus faecalis; settings: for MIC: Enterococcus faecalis VRE 53 (vancomycin-resistant), read-out: MIC; for MIC-fold improvement vs. vancomycin: VRE 53, ratio of MIC of vancomycin and MIC of analogue
Method in brief: as §1

[12] = tested on: E. faecalis VRE 29; test: MIC, broth microdilution, vancomycin-resistant E. faecalis VRE 29 (VanA); format: cell-based, Enterococcus faecalis; settings: for MIC: Enterococcus faecalis VRE 29 (vancomycin-resistant), read-out: MIC; for MIC-fold improvement vs. vancomycin: VRE 29, ratio of MIC of vancomycin and MIC of analogue
Method in brief: as §1

[13] = tested on: MRSA KS2; test: MIC, broth microdilution, MRSA KS2; format: cell-based, Staphylococcus aureus; settings: for MIC-fold improvement vs. vancomycin: MRSA KS2, ratio of MIC of vancomycin and MIC of analogue; for MIC: Staphylococcus aureus MRSA KS2, read-out: MIC
Method in brief: as §1

[14] = tested on: human cervix carcinoma (HeLa) cells; test: Cytostatic activity, HeLa cell proliferation; format: cell-based; settings: mean ± SD of three experiments; highest concentration tested 250 µM; 4 days; read-out: Toxicity (IC50) HeLa
Method in brief: as §2

[15] = tested on: S. aureus VISA/HIP5827; test: MIC, broth microdilution, vancomycin-intermediate S. aureus VISA HIP5827; format: cell-based, Staphylococcus aureus; settings: for MIC: Staphylococcus aureus VISA/HIP5827, read-out: MIC; for MIC-fold improvement vs. vancomycin: VISA/HIP5827, ratio of MIC of vancomycin and MIC of analogue
Method in brief: as §1

[16] = tested on: MRSA KS6; test: MIC, broth microdilution, MRSA KS6; format: cell-based, Staphylococcus aureus; settings: for MIC-fold improvement vs. vancomycin: MRSA KS6, ratio of MIC of vancomycin and MIC of analogue; for MIC: Staphylococcus aureus MRSA KS6, read-out: MIC
Method in brief: as §1

[17] = tested on: Clostridium difficile ATJ ribotype 014/20; test: MIC, plate drop assay, C. difficile ATJ ribotype 014/20; format: cell-based; settings: for MIC-fold improvement vs. vancomycin: C. difficile ATJ ribotype 014/20
Procedure: as §3

[18] = tested on: Murine leukemia (L1210) cells; test: Cytostatic activity, L1210 cell proliferation; format: cell-based; settings: mean ± SD of three experiments; highest concentration tested 250 µM; 2 days; read-out: Toxicity (IC50) L1210
Method in brief: as §2

| Structure (SMILES) | MIC [1] | MIC-fold improvement vs. vancomycin [1] | MIC [2] | IC50 [3] | IC50 [4] | MIC-fold improvement vs. vancomycin [6] | MIC [7] | MIC-fold improvement vs. vancomycin [7] | MIC [8] | MIC-fold improvement vs. vancomycin [8] | MIC [10] | MIC-fold improvement vs. vancomycin [10] | MIC [11] | MIC-fold improvement vs. vancomycin [11] | MIC [12] | MIC-fold improvement vs. vancomycin [12] | IC50 [14] | MIC [15] | MIC-fold improvement vs. vancomycin [15] | MIC-fold improvement vs. vancomycin [17] | other results |
| --- | --- | --- | --- | --- | --- | --- | --- | --- | --- | --- | --- | --- | --- | --- | --- | --- | --- | --- | --- | --- | --- |
| CNC(CC(C)C)C(=O)NC1C(=O)NC(CC(N)=O)C(=O)NC2C(=O)NC3C(=O)NC(C(=O)NC(C(=O)NCCCNC(=O)c4ccc(-c5ccc(F)cc5)cc4)c4cc(O)cc(O)c4-c4cc3ccc4O)C(O)c3ccc(c(Cl)c3)Oc3cc2cc(c3OC2OC(CO)C(O)C(O)C2OC2CC(C)(N)C(O)C(C)O2)Oc2ccc(cc2Cl)C1O (centres unmarked) [Vanc-34] | 0.78 µM (≈ 1.33 µg/mL) | 128 | 6.25 µM (≈ 10.6 µg/mL) | 62 µM | 34 ± 2 µM | 29 | 0.39 µM (≈ 0.664 µg/mL) | 513 | 0.10 µM (≈ 0.17 µg/mL) | 8 | 0.20 µM (≈ 0.341 µg/mL) | 8 | 12.5 µM (≈ 21.3 µg/mL) | 32 | 3.13 µM (≈ 5.33 µg/mL) | 128 | 110 ± 8 µM | 0.10 µM (≈ 0.17 µg/mL) | 64 | 22 | MIC-fold improvement vs. vancomycin [2]: 64; MIC-fold improvement vs. vancomycin [5]: 4; MIC [5]: 0.20 µM (≈ 0.341 µg/mL); MIC ([6]; C. difficile AIU ribotype 027, plate drop assay): 1.56 µM (≈ 2.66 µg/mL); MIC-fold improvement vs. vancomycin [9]: 4; MIC [9]: 0.20 µM (≈ 0.341 µg/mL); MIC-fold improvement vs. vancomycin [13]: 8; MIC [13]: 0.10 µM (≈ 0.17 µg/mL); MIC-fold improvement vs. vancomycin [16]: 4; MIC [16]: 0.20 µM (≈ 0.341 µg/mL); MIC ([17]; C. difficile ATJ ribotype 014/20, plate drop assay): 1.56 µM (≈ 2.66 µg/mL); IC50 [18]: 42 ± 7 µM |
| CNC(CC(C)C)C(=O)NC1C(=O)NC(CC(N)=O)C(=O)NC2C(=O)NC3C(=O)NC(C(=O)NC(C(=O)NCCCNC(=O)c4ccc5cc(OC)ccc5c4)c4cc(O)cc(O)c4-c4cc3ccc4O)C(O)c3ccc(c(Cl)c3)Oc3cc2cc(c3OC2OC(CO)C(O)C(O)C2OC2CC(C)(N)C(O)C(C)O2)Oc2ccc(cc2Cl)C1O (centres unmarked) [Vanc-29] | 3.13 µM (≈ 5.29 µg/mL) | 32 | 12.5 µM (≈ 21.1 µg/mL) | 185 µM | > 250 µM | 7 | 1.56 µM (≈ 2.64 µg/mL) | 128 | 0.39 µM (≈ 0.659 µg/mL) | 2 | 0.20 µM (≈ 0.338 µg/mL) | 8 | 25 µM (≈ 42.2 µg/mL) | 16 | 6.25 µM (≈ 10.6 µg/mL) | 64 | 54 ± 44 µM | 0.39 µM (≈ 0.659 µg/mL) | 16 | 5.6 | MIC-fold improvement vs. vancomycin [5]: 2; MIC [5]: 0.39 µM (≈ 0.659 µg/mL); MIC-fold improvement vs. vancomycin [9]: 2; MIC [9]: 0.39 µM (≈ 0.659 µg/mL); MIC-fold improvement vs. vancomycin [13]: 2; MIC [13]: 0.39 µM (≈ 0.659 µg/mL); MIC-fold improvement vs. vancomycin [16]: 2; MIC [16]: 0.39 µM (≈ 0.659 µg/mL); IC50 [18]: > 250 µM |
| CN[C@H](CC(C)C)C(=O)N[C@H]1C(=O)N[C@@H](CC(N)=O)C(=O)N[C@H]2C(=O)N[C@H]3C(=O)N[C@H](C(=O)N[C@H](C(=O)NCC(=O)Nc4ccc5cc6ccccc6cc5c4)c4cc(O)cc(O)c4-c4cc3ccc4O)[C@H](O)c3ccc(c(Cl)c3)Oc3cc2cc(c3O[C@@H]2O[C@H](CO)[C@@H](O)[C@H](O)[C@H]2O[C@H]2C[C@](C)(N)[C@H](O)[C@H](C)O2)Oc2ccc(cc2Cl)[C@H]1O [Vanc-59] | 0.20 µM (≈ 0.336 µg/mL) | 512 | 1.56 µM (≈ 2.62 µg/mL) | 96 µM | 23 ± 6 µM | 29 | 1.56 µM (≈ 2.62 µg/mL) | 128 | 0.39 µM (≈ 0.656 µg/mL) | 2 | 0.20 µM (≈ 0.336 µg/mL) | 8 | 12.5 µM (≈ 21 µg/mL) | 32 | 3.13 µM (≈ 5.26 µg/mL) | 128 | 88 ± 37 µM | 0.39 µM (≈ 0.656 µg/mL) | 16 | 22 | MIC-fold improvement vs. vancomycin [2]: 256; IC50 [18]: 177 ± 90 µM |
